Laboratory results: publication PMC8304783, “Antiadhesive Properties of Imidazolium Ionic Liquids Based on (−)-Menthol Against Candida spp” (International Journal of Molecular Sciences, 2021)

Tests used:
Format in all cases: cell-based
[1] = test system: C. albicans B4 and Gu5 isolates; assay: Biofilm of clinical isolates on acrylic dental crowns (crystal violet); details: B4 and Gu5 (FLC-resistant); 72 h biofilm, then ILs 25 μM for 2 h
Method: To assess the influence of ILs on biofilm formation by C. albicans strain SC5314 on dentures, the following materials were used: acrylic dental crowns, porcelain-fused-to-metal (PFMs) dental crowns and dental alloy substructures. All dentures were kind gifts from Prof. M. Łukaszewicz (Wrocław, Poland). Prior to the experiments, the dentures were sterilized by 1 h incubation in 70% pure ethanol (EtOH) solution, washed with sterile water to remove EtOH residues and dried under aseptic conditions. The experiments were performed by aseptically placing dentures in YPD, supplemented with FBS, and inoculating them with YPD-grown C. albicans suspension (0.01% Vol/Vol). After 72 h of incubation at 37 °C, the dentures were treated for 2 h with the addition of ILs (conc. = 25 µM), washed with PBS and fixed with 0.1% CV solution for 10 min, then washed with PBS to remove the stain residue. The dentures were then dried and photographed. Microscopic preparations were made of biofilm samples which were imaged using the Zeiss Axio Imager A2 microscope equipped with Zeiss Axiocam 503 mono microscope camera.
Figure S1. Detachment of adherent C. albicans clinical isolates after 2 h incubation on polystyrene surfaces by ionic liquids (ILs) (means ± SD; n = 3). Results are presented as percentage of adherent cells relative to untreated controls (100% adhesion). Statistical analysis of detachment at each concentration was performed towards corresponding control experiments (isolates untreated by ILs=100% adhesion) (*, p < 0.05; **, p < 0.01 […]
We selected C. albicans B4 and Gu5 isolates for evaluating the ability of ILs to eradicate biofilm formation on acrylic dental crowns (Figure S2). Both the strains were chosen due to their FLC‐resistance status. An IL concentration of 25 μM was selected for this investigation. In each condition, a C. albicans biofilm was formed after 72 h incubation, and the collected biomass was microscopically evaluated for the presence of hyphae, pseudohyphae and blastoconidia characteristic of C. albicans (Figure S2). […]

C. krusei = assay: Detachment of adherent cells from polystyrene (crystal violet); details: C. krusei on polystyrene, 2 h treatment; over MIC, 2 × MIC and 4 × MIC
Method: (§1) Thus, for the evaluation of ILs on fungal adhesion, higher concentrations were used, corresponding to 1, 2 and 4 times the MIC90 values (Figure 1).
(§2) Figure 1 Detachment of adherent Candida spp. cells after 2 h incubation on polystyrene surfaces by ionic liquids (ILs) (A) or amphotericin B (AMB) (B) (means ± SD; n = 3). Results are presented as percentage of adherent cells relative to untreated controls (100% adhesion). Statistical analysis of detachment at each concentration was performed towards corresponding control experiments (fungi untreated by ILs or AMB = 100% adhesion) (*, p < 0.05 and **, p < 0.01).
(§3) Post-adherence treatment with ILs was performed in a similar manner to that described previously by our team. Candida spp. suspensions were prepared by centrifuging YPD-grown cultures and resuspending fungal mass in PBS to an OD600 = 0.6. Sterile 96-well plates were inoculated with the prepared suspensions and incubated for 2 h at 37 °C to induce fungal adhesion. Afterwards, adherent cells were washed with PBS to remove planktonic cells and treated with ILs (concentrations equivalent to 1, 2 or 4 × MIC90 for each fungi) for 2 h at 37 °C. Then, each well was washed with PBS and adherent cells were fixed with 0.1% CV solution for 5 min, and washed with PBS. Cells were then treated with a solution of isopropanol 0.04 N HCL with 0.1% SDS to permeabilize adherent cells and release the CV dye. The absorbance of CV was measured at 590 nm (ASYS UVM 340 Biogenet). The percentage of cells that were removed was determined in comparison to adherent cells treated with PBS only (designated 100% adhesion).

C. parapsilosis = assay: as above; details: C. parapsilosis on polystyrene, 2 h treatment, 2 × MIC and 4 × MIC
Method: as §1, §2, §3

C. glabrata = assay: as above; details: C. glabrata on polystyrene, 2 h treatment
Method: as §1, §2, §3

C. albicans [2] = assay: as above; details: C. albicans on polystyrene, 2 h treatment; over MIC, 2 × MIC and 4 × MIC
Method: as §1, §2, §3

C. albicans [3] = assay: Calcofluor white staining (cell wall integrity); details: ILs 25 µM, 2 h, 37 °C
Method: (§4) Fungal adhesion to biomedical surfaces is strongly related to the structure of the cell wall, and the presence of adhesins (Als proteins) on the surface of the cell. In turn, the progression to biofilm formation is dependent on the ability of C. albicans to form hyphae. In conditions similar to those above (ILs conc. = 25 µM), we examined C. albicans cell wall integrity, its ability to form hyphae, and the level of ALS genes expression, encoding Als1 and Als5 adhesins (Figure 3). […] Despite some reduction, the result was not statistically significant (p = 0.12). On the other hand, after the treatment with IL 2a, the expression of ALS1 and ALS5 genes was reduced by 50 or 55%, respectively (Figure 3C). The results were statistically significant in both cases (p = 0.04 for either ALS gene). However, in case of compounds with alkyl substituents (1a and 1b), the reduction of gene expression was to a lesser degree. […] Despite observing a chain-length dependence, the results were not statistically significant (p = 0.07 for both ALS gene after treatment with 1b).
Calcofluor white was used to assess cell wall integrity in C. albicans, following our protocol. YPD-grown C. albicans cells were pelleted, washed with PBS and treated with ILs (conc. = 25 µM) for 2 h at 37 °C. Afterwards, the samples were washed with PBS, stained with calcofluor white (final conc. = 25 µM) for 5 min. Then, cell suspensions were washed with PBS, pelleted and observed under the Zeiss (Poznań, Poland) Axio Imager A2 microscope equipped with Zeiss Axiocam 503 mono microscope camera and the Zeiss HBO100 mercury lamp.

C. albicans [4] = assay: Yeast-to-hyphae transition (FBS-induced hyphae formation); details: FBS-induced (10%), ILs 25 µM, 2 h, 37 °C; control 94 ± 0.6%
Method: as §4
Experiments were performed as described before, with modifications. YPD-grown C. albicans were pelleted, washed with fresh YPD medium and resuspended in YPD medium (OD600 = 0.4). The suspensions were treated with ILs (conc. = 25 µM) and FBS (final conc. = 10%) for 2 h at 37 °C. The samples were observed under the Zeiss Axio Imager A2 microscope equipped with Canon PowerShot G10 camera for assessment of cell morphology. For quantitative estimation, cells of each assay were counted in three independent repetitions determining the percentage of hyphae forming cells.

[5] = highest concentration (4 × MIC)

Row | Compound | Biofilm of clinical isolates on acrylic dental crowns (CV staining) [1] | Reduction of adhesion (C. krusei) | Reduction of adhesion (C. parapsilosis; over MIC) | Reduction of adhesion (C. glabrata; [5]) | Reduction of adhesion (C. albicans [2]) | Calcofluor white staining of chitin (cell wall integrity) (C. albicans [3]) | Percentage of cells forming hyphae (C. albicans [4]) | Reduction of adhesion (C. parapsilosis) | Reduction of adhesion (C. glabrata; 2 × MIC and 4 × MIC)
1 | CCCCCCCCCn1cc[n+](CO[C@@H]2C[C@H](C)CC[C@H]2C(C)C)c1 [1a, 1-[(1R,2S,5R)-(−)-menthoxymethyl]-3-nonylimidazolium chloride] | residual CV staining | approximately 10% | did not influence the adherent properties | ~ 40% | did not influence the adherent properties | well-defined, intense chitin fluoresce with clearly visible bud scars, comparable with the control staining | < 1% |  | 
2 | CCCCCCCCCCn1cc[n+](CO[C@@H]2C[C@H](C)CC[C@H]2C(C)C)c1 [1b, 3-decyl-1-[(1R,2S,5R)-(−)-menthoxymethyl]imidazolium chloride] | residual CV staining | did not significantly reduce |  |  | 20–25% | well-defined, intense chitin fluoresce with clearly visible bud scars, comparable with the control staining | < 1% | 20–25% | ~ 20%
3 | CCCCCCCCCOCn1cc[n+](CO[C@@H]2C[C@H](C)CC[C@H]2C(C)C)c1 [2a, 1-(1R,2S,5R)-(−)-menthoxymethyl-3-nonyloxymethylimidazolium chloride] | prote ct ed | 10–20% | 30–40% | approximately 45% | 20–30% | low fluorescence intensity and thinner calcofluor white-stained chitin layer surrounding cells than the controls | 78.2 ± 17.2% |  | 
